Source: article PMC10065791 (eLife, 2023)
Where two headings read alike, the source gives them in different places.

Assays:
wild-type virus NL4-3 = assay: TZM infection assay (cell culture-based viral inhibition), wild-type virus; parameters: species or system HIV-1; details: Human immunodeficiency virus 1, NL43; wild-type NL4-3 virus; concentration at time of virus production reducing infectivity by 50%; TZM-bl readout
Method: (§1) PI dilutions were prepared by taking 10 µM stocked and performing a fivefold serial dilution using RPMI media (final drug concentration is […]). One dilution of drug was added to each well of a 24-well plate and repeated so each virus would have a full set of dilutions. Viruses for the assay were made by seeding 3 × 10^6 CEM cells in a 24-well plate and incubating with 250 µl of virus at 37°C for 2–3 hr before bringing the culture to 10 ml with RPMI media. After 48 hr, the medium was changed and repeated every 48 hr after until the culture had undergone CPE. Infected CEM cells were collected and diluted so that 1 ml of cells could be plated in each well containing a unique drug dilution. Then 24 hr later the virus supernatant was collected from each well followed by filtering through a […] then placed in –80°C. Viruses were thawed and added to 96-well plates in triplicate. TZM-bl cells were collected and diluted to a concentration of 2 × 10^5 cells/ml, 100 µl were added on top of the pre-plated viruses. Plates were kept in 37°C, 5% CO2 in an incubator for 48 hr. After 48 hr, the cells in the plates were lysed by removing the medium, washing two times with 100 µl PBS, and then lysed with 1× lysis buffer (made from 5× Promega Firefly Lysis Buffer). Plates were frozen for at least 24 hr and then thawed for 2 hr before analyzing with Promega Firefly Luciferase Kit on a luminometer. Data was analyzed with Prism 7 to fit sigmoidal dose–response curves.

[1] = test system: virus pool selected to 5000 nM inhibitor; assay: TZM infection assay, inhibitor-selected resistant virus pools; type: cell-based, HIV-1; details: Human immunodeficiency virus 1, read-out: EC50 Viral culture (5000 nM)
Method: In addition to the sequence of the terminally selected virus, we validated that selection occurred over the entire course of the selection protocol. […] In comparing the number of mutations present in cultures using the I84V versus the I50V pathway, we noted that on average there were more mutations in the I50V viruses at the intermediate drug concentration compared to the I84V viruses (100 nM, p=0.03), and this trend continued at the higher drug concentration.
(§2) An aliquot of 3 × 10^6 CEMx174 cells was incubated at 37°C for 2–3 hr with 250 µl of a virus stock generated from the HIV-1 infectious molecular clone pNL4-3. The culture volume was then brought to 10 ml with RPMI medium. […] After 48 hr and every 48 hr after, the cells were pelleted by centrifugation and 10 ml of fresh medium and inhibitors were added. When the culture had undergone extensive cytopathic effect (CPE) indicative of viral replication, the supernatant medium and the cells were harvested separately and stored at –80°C. The virus-containing supernatant was used to start the next round of infection, and after several rounds at the initial concentration, the inhibitor concentration was increased 1.5-fold at each subsequent round of virus passage.
as §1

[2] = test system: HIV-1 NL4-3 wild-type virus; assay: Selection for resistance in CEMx174 culture with escalating inhibitor, start wild-type virus, Primer ID deep sequencing; type: cell-based
Method: . The selection experiments were performed under two separate starting conditions: first when the starting virus was generated from the NL4-3 clone (this clone closely approximates the clade B consensus for the protease amino acid sequence and will be referred to as ‘wild type’), then again when the starting virus was a mixture of 26 isogenic viruses each with a single mutation associated with drug resistance in the NL4-3 background. […]. For technical reasons, only five of the selections starting with the mixture of mutants reached an inhibitor concentration as high as 400 nM and are reported here (Figure 2—figure supplement 3).
Resistance mutations selected in the protease coding domain during the escalating selective pressure of increasing PI concentration were examined at various timepoints using a next-generation sequencing (NGS) protocol that included Primer ID with the MiSeq platform ([Zhou et al., 2015]). We first examined the sequence of the most abundant variant in each of the two selection schemes present at the highest inhibitor concentration reached (Figure 2A). For those selections that reached 5 μM, 8–14 mutations were present in the most abundant variant. Typically the next two most abundant variants in the population differed by a single amino acid, and on average the three most abundant variants in the 5 μM cultures accounted for 88% of the total viral population (Figure 2—source data 1). Evolution of resistance followed two pathways, one based on I50V and one based on I84V. In three cultures, V2wt, V5wt, and V2mut (which reached either 4 or 5 μM final drug concentration; V2wt indicates the virus pool selected with UMASS-2 starting with wild-type virus), these two mutations, I84V and I50V, became linked on the same genome (Figure 2A) showing they are not mutually exclusive; […].
as §2
We used the PID protocol to prepare MiSeq PID libraries with multiplexed primers. Viral RNA was extracted from plasma samples using the QIAamp viral RNA mini kit (QIAGEN, Hilden, Germany). Complementary DNA (cDNA) was synthesized using a cDNA primer mixture targeting protease (PR) with a block of random nucleotides in each cDNA primer serving as the PID, and SuperScript III RT (Thermo Fisher). After two rounds of bead purification of the cDNA, we amplified the cDNA using a mixture of a forward primer that targeted the upstream coding region, followed by a second round of PCR to incorporate the Illumina adaptor sequences. Gel-purified libraries were pooled and sequenced using the MiSeq 300 base paired-end sequencing protocol (Illumina). The sequencing covered the HIV-1 PR region (HXB2 2648-2914, 3001-3257).
We used the Illumina bcl2fastq pipeline for the initial processing and constructed template consensus sequences (TCSs) with TCS pipeline version 1.33 (https://github.com/SwanstromLab/PID) ([Zhou, 2019]). We then aligned TCSs to an HXB2 reference to remove sequences not at the targeted region or that had large deletions. We used the Entropy tool at LANL (https://www.hiv.lanl.gov/content/sequence/ENTROPY/entropy.html) to calculate entropy for each specimen. The sequencing data is available at NIH Sequencing Read Archive (SRA) under BioProject ID PRJNA853351.

wild-type NL4-3 protease [3] = molecular target: T1, wild-type NL4-3 protease (Human immunodeficiency virus type 1 group M subtype B, UniProt P12497, Q495K); parameters: method as in Lockbaum et al. (ACS Infect Dis. 2019 Feb 8; 5 (2): 316–325); details: previously reported, ref Lockbaum et al. (ACS Infect Dis. 2019 Feb 8, 5 (2): 316–325), read-out: Ki WT; cited from earlier work
T1 construct: the gene encoding the desired HIV-1 protease was subcloned into the heat-inducible pXC35 expression vector; made in house

I84V mutant protease [4] = molecular target: T2, I84V mutant protease (Human immunodeficiency virus type 1 group M subtype B, UniProt P12497, I572V/Q495K); parameters: method as in Lockbaum et al. (ACS Infect Dis. 2019 Feb 8; 5 (2): 316–325); details: I84V drug-resistant protease variant; previously reported; ref Lockbaum et al. (ACS Infect Dis. 2019 Feb 8; 5 (2): 316–325); cited from earlier work
T2 construct: the gene encoding the desired HIV-1 protease was subcloned into the heat-inducible pXC35 expression vector; made in house

[5] = molecular target: T3, I50V/A71V mutant protease (Human immunodeficiency virus type 1 group M subtype B, UniProt P12497, A559V/I538V/Q495K); parameters: method as in Lockbaum et al. (ACS Infect Dis. 2019 Feb 8; 5 (2): 316–325); details: I50V/A71V drug-resistant protease variant; previously reported; ref Lockbaum et al. (ACS Infect Dis. 2019 Feb 8; 5 (2): 316–325); cited from earlier work
T3 construct: the gene encoding the desired HIV-1 protease was subcloned into the heat-inducible pXC35 expression vector; made in house

wild-type NL4-3 protease [6] = molecular target: T1, wild-type NL4-3 protease; assay: Ki assay (FRET enzyme inhibition), wild-type protease; type: biochemical, HIV-1; details: limit of detection 5 pM, read-out: Ki WT
Method: (§3) The highly mutated, resistant, protease variant genes were purchased on a pET11a plasmid with codon optimization for protein expression in Escherichia coli (Genewiz). A Q7K mutation was included to prevent autoproteolysis ([Rosé et al., 1993]). The expression, isolation, and purification of WT and mutant HIV-1 proteases used for enzymatic assays were carried out as previously described ([Henes et al., 2019]; [King et al., 2002]; [Özen et al., 2014]). Briefly, the gene encoding the desired HIV-1 protease was subcloned into the heat-inducible pXC35 expression vector (ATCC) and transformed into E. coli TAP-106 cells. Cells grown in 6 l of Terrific Broth were lysed with a cell disruptor twice, and the protein was purified from inclusion bodies ([Hui et al., 1993]). Inclusion bodies, isolated as a pellet after centrifugation, were dissolved in 50% acetic acid followed by another round of centrifugation at 19,000 rpm for 30 min to remove insoluble impurities. Size-exclusion chromatography was carried out on a 2.1 l Sephadex G-75 Superfine (Sigma Chemical) column equilibrated with 50% acetic acid to separate high molecular weight proteins from the desired protease. Pure fractions of HIV-1 protease were refolded using a tenfold dilution of refolding buffer (0.05 M sodium acetate at pH 5.5, 5% ethylene glycol, 10% glycerol, and 5 µM DTT). Folded protein was concentrated to 0.5–3 mg/ml and stored. The stored protease was used in KM and Ki assays.
(§4) Enzyme inhibition constants (Ki values) were determined as previously described ([Henes et al., 2019]; [Lockbaum et al., 2019]; [Matayoshi et al., 1990]; [Windsor and Raines, 2015]). Briefly, in a 96-well plate, inhibitors were serially diluted down from […] depending on protease resistance. All samples were incubated with 5 nM protein for 1 hr. A 10-amino acid substrate containing an optimized protease cleavage site ([Windsor and Raines, 2015]), purchased from Bachem, with an EDANS/DABCYL FRET pair was dissolved in 4% DMSO at 120 µM. Using a PerkinElmer Envision plate reader, 5 µl of the 120 µM substrate were added to the 96-well plate to a final concentration of 10 µM. […] Data was analyzed with Prism7.

I84V mutant protease [7] = molecular target: T2, I84V mutant protease; assay: Ki assay (FRET enzyme inhibition), I84V protease; type: biochemical, HIV-1; details: I84V drug-resistant protease variant
Method: as §3, §4

[8] = molecular target: T3, I50V/A71V mutant protease; assay: Ki assay (FRET enzyme inhibition), I50V/A71V protease; type: biochemical, HIV-1; details: I50V/A71V drug-resistant protease variant
Method: as §3, §4

With `CC(C)CN(C[C@@H](O)[C@H](Cc1ccccc1)NC(=O)O[C@H]1CO[C@H]2OCC[C@H]21)S(=O)(=O)c1ccc(N)cc1` [DRV, Darunavir, reference compound] the EC50 (wild-type virus NL4-3) was 7.7 ± 1.6 nM, the EC50 [1] was over 100000 nM and the “Abundance of variant at the last time point” value (from here on “Abundance of variant”) ([2]; variant 10I/32I/41I/46I/47V/82I/84V/85V, passage 43, [PI] 1350 nM) was 10.3%. For the same compound, the “Abundance of variant” value ([2]; variant 32I/41I/46I/47V/82I/84V/85V, passage 43, [PI] 1350 nM) was 62.8% and the “Abundance of variant” value ([2]; variant 32I/41I/46I/47V/82L/84V/85V, passage 43, [PI] 1350 nM) was 10.1%.

With `CC[C@H](C)CN(C[C@@H](O)[C@H](Cc1ccccc1)NC(=O)O[C@H]1CO[C@H]2OCC[C@H]21)S(=O)(=O)c1ccc(N)cc1` [UMASS-1] the EC50 (wild-type virus NL4-3) was 5.9 ± 1 nM, the “Abundance of variant” value ([2]; variant 10I/16E/32I/33F/46I/54L/71V/76V/82I/84V, passage 75, [PI] 5000 nM) was 55.4% and the “Abundance of variant” value ([2]; variant 10I/16E/32I/33F/46I/54L/71V/76V/82I/84V/91S, passage 75, [PI] 5000 nM) was 6.2%. The “Abundance of variant” value ([2]; variant 10I/32I/33F/46I/54L/71V/76V/82I/84V, passage 75, [PI] 5000 nM) was 21.9%, the Ki (wild-type NL4-3 protease [3]) was under 0.005 nM and the Ki (I84V mutant protease [4]) was 0.0261 ± 0.0037 nM. The Ki [5] was 0.11 ± 0.0088 nM.

Work on `CC[C@H](C)CN(C[C@@H](O)[C@H](Cc1ccccc1)NC(=O)O[C@H]1CO[C@H]2OCC[C@H]21)S(=O)(=O)c1ccc(OC)cc1` [UMASS-2] yielded a Ki (wild-type NL4-3 protease [6]) of under 0.005 nM, a Ki (I84V mutant protease [7]) of under 0.005 nM and a Ki [8] of 0.015 ± 0.0027 nM. The EC50 (wild-type virus NL4-3) was 2.4 ± 0.3 nM, the “Abundance of variant” value ([2]; variant 10F/33F/46I/47V/50V/71V/82I/84V, passage 82, [PI] 5000 nM) was 37.5% and the “Abundance of variant” value ([2]; variant 28S/32I/33F/46I/47V/50V/71V/82I/84V, passage 82, [PI] 5000 nM) was 33.5%. The “Abundance of variant” value ([2]; variant 33F/46I/47V/50V/71V/82I/84V, passage 82, [PI] 5000 nM) was 4.2%.

With `CCC(CC)CN(C[C@@H](O)[C@H](Cc1ccccc1)NC(=O)O[C@H]1CO[C@H]2OCC[C@H]21)S(=O)(=O)c1ccc(CO)cc1` [UMASS-8] the Ki (wild-type NL4-3 protease [6]) was under 0.005 nM, the Ki (I84V mutant protease [7]) was under 0.005 nM and the Ki [8] was 0.0554 ± 0.004 nM. For the same compound, the EC50 (wild-type virus NL4-3) was 4.2 ± 0.9 nM, the “Abundance of variant” value ([2]; variant 10F/12K/33F/46I/47V/50V/53L/54L/63P/71V/82I/85V, passage 67, [PI] 5000 nM) was 55.4% and the “Abundance of variant” value ([2]; variant 10F/12K/33F/46I/47V/50V/53L/54L/63P/71V/82I/85V/87K, passage 67, [PI] 5000 nM) was 0.1%. The “Abundance of variant” value ([2]; variant 10F/33F/46I/47V/50V/53L/54L/63P/71V/82I/85V, passage 67, [PI] 5000 nM) was 41.9%.

In the case of `CCC(CC)CN(C[C@@H](O)[C@H](Cc1ccccc1)NC(=O)O[C@H]1CO[C@H]2OCC[C@H]21)S(=O)(=O)c1ccc2ncsc2c1` [UMASS-10], the Ki (wild-type NL4-3 protease [6]) is reported as under 0.005 nM, the Ki (I84V mutant protease [7]) is reported as 0.0143 ± 0.0093 nM and the Ki [8] is reported as 0.0058 ± 0.0011 nM. The EC50 (wild-type virus NL4-3) was 4.1 ± 0.9 nM, the “Abundance of variant” value ([2]; variant 10F/13V/33F/43T/46I/47V/50V/54L/71V/77I/82L/88S, passage 77, [PI] 5000 nM) was 1.6% and the “Abundance of variant” value ([2]; variant 10F/13V/33F/43T/46I/47V/50V/54L/71V/82L/87K/88S, passage 77, [PI] 5000 nM) was 0.2%. For the same compound, the “Abundance of variant” value ([2]; variant 10F/13V/33F/43T/46I/47V/50V/54L/71V/82L/88S, passage 77, [PI] 5000 nM) was 91.2%.
